Test results taken from publication PMC10443802, “Targeting a xenobiotic transporter to ameliorate vincristine-induced sensory neuropathy” (JCI Insight, 2023).
Where “and” joins values, the source holds several entries; their conditions need not be identical. Equal values may be shown once.

Tests used:
[1] = tested on: L1210; settings: vincristine 1 μM, 30 min, nilotinib 10 μM
Text: (A) Gene expression of the OATP1B2 gene in L1210 and P388D1 murine leukemia cells
normalized to total protein levels. All data presented represent the mean (bars) ± SEM (error bars).

[2] = molecular target: T1, hOATP1B1 (Homo sapiens, UniProt Q9Y6L6); experiment: Inhibition of EβG uptake in HEK293 cells overexpressing hOATP1B1; settings: inhibitor 10 μM, 15-min pre-incubation
T1 sequence (Q9Y6L6 1-691): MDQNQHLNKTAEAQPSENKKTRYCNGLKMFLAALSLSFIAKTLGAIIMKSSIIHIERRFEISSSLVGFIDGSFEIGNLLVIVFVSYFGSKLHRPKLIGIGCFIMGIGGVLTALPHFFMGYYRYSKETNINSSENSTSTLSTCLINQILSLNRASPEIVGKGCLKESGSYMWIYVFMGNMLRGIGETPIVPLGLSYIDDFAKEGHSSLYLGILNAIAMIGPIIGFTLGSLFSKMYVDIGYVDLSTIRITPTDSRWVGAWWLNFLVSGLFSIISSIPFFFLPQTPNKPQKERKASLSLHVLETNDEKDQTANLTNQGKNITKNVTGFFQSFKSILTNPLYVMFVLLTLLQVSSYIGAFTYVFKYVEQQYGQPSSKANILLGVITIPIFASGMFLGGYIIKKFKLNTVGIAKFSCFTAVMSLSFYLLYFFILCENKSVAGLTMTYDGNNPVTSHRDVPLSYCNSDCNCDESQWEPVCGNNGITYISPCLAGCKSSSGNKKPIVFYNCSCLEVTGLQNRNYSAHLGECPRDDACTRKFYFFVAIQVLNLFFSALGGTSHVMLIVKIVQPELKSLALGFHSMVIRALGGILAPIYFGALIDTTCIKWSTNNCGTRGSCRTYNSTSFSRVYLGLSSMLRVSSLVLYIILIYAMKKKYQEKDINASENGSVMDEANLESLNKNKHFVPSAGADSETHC

[3] = molecular target: hOATP3A1 (Homo sapiens, UniProt Q9UIG8); experiment: Vincristine uptake screen, HeLa cells overexpressing hOATP3A1; format: in vitro ADME
Sequence of hOATP3A1 (Q9UIG8 whole entry): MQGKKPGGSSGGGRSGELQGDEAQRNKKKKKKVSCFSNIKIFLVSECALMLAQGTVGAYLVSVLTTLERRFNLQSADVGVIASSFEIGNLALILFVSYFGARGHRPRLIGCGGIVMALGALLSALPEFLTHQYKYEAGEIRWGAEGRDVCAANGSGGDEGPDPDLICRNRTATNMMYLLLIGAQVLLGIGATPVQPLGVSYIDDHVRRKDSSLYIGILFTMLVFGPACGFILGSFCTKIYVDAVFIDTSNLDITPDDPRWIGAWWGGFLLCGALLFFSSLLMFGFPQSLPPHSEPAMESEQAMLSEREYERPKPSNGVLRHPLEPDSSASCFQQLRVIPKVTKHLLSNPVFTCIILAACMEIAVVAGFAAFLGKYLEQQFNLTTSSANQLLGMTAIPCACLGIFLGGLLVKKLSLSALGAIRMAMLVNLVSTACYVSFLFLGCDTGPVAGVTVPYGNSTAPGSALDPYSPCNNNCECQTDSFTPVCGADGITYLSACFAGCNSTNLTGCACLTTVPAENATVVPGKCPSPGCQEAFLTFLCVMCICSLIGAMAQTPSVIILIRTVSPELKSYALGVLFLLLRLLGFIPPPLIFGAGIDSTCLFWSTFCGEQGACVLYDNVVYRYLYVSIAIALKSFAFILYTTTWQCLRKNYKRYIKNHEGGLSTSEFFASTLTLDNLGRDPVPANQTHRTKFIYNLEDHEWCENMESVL
Protocol: (§1) Relative uptake is expressed as percentage change compared with empty vector controls (n = 4–14 per group). […] Human OATP1B1 and OATP1B3 transporter–overexpressed cells were used as positive controls; empty vector controls were used as the negative control. […] Mechanical allodynia (C), thermal hyperalgesia (D), and sciatic nerve maximal action potential amplitudes (E) are expressed as percentage change relative to baseline values (n = 6–8 per group). Statistical analysis was performed using a 2-way ANOVA with Bonferroni’s post hoc test. **P < 0.01, ***P < 0.001, ****P < 0.0001, compared with baseline values. […] Data are shown as mean ± SEM. […]
(§2) transfected with transporters of interest, including hOAT1, hOAT3, hOAT4, hOATP1A2, hOATP3A1, hOATP4A1, hOATP5A1, hOATP1C1, hOATP1B1, hOATP1B3, hOATP2B1, hOCT1, hOCT2, hOCTN1, hOCTN2, hASBT, hNTCP, hNPT1, hMATE1, hOSTα/β, hPEPT1, hPEPT2, rOatp1a1, rOatp1a4, rOatp1a5, rOatp1b2, rNtcp, rAsbt, rOat1, and rOct1. Cells were transfected with expression plasmid or vector control lacking any insert using Lipofectin reagent (Invitrogen). Sixteen hours thereafter, cells were washed with transport media (OPTIMEM, Invitrogen) and treated with radiolabeled drug. […] The cellular radioactivity was quantified by liquid scintillation counting as described above. […]

[4] = molecular target: hOATP2B1 (Homo sapiens, UniProt O94956); experiment: Vincristine uptake screen, HeLa cells overexpressing hOATP2B1; format: in vitro ADME
Sequence of hOATP2B1 (O94956 whole entry): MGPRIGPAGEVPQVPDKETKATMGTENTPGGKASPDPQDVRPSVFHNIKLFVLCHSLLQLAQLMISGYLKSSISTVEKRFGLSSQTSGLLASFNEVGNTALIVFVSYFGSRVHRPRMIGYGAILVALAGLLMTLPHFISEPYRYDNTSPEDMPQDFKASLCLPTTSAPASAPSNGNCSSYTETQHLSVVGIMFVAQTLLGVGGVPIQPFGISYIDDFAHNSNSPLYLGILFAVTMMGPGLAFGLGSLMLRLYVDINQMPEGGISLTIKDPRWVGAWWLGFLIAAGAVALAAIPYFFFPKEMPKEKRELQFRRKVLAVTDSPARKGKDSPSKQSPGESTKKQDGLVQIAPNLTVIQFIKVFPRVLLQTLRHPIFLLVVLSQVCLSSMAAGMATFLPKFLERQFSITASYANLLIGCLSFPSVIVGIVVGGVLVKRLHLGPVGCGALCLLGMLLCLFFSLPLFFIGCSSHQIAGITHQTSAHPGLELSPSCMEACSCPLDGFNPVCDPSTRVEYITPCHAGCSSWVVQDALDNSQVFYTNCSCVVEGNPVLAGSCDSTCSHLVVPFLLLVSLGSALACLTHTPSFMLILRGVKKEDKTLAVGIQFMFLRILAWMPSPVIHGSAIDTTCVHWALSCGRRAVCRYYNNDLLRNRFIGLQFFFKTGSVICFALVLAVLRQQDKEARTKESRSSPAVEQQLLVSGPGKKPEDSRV
Protocol: as §1
as §2, with “(Invitrogen).” for “(Invitrogen). Sixteen hours thereafter, cells were washed with transport media (OPTIMEM, Invitrogen) and treated with radiolabeled drug.”
(§3) Samples were analyzed using real-time quantitative PCR and Taqman Probes (Applied Biosystems). The relative gene expression was determined using the ΔΔCt method, and normalized to the mouse or human housekeeping gene, GAPDH. […]

[5] = molecular target: hOATP1C1 (Homo sapiens, UniProt Q9NYB5); experiment: Substrate uptake in HEK293 cells overexpressing hOATP1C1; settings: HEK293 OATP1C1
Sequence of hOATP1C1 (Q9NYB5 whole entry): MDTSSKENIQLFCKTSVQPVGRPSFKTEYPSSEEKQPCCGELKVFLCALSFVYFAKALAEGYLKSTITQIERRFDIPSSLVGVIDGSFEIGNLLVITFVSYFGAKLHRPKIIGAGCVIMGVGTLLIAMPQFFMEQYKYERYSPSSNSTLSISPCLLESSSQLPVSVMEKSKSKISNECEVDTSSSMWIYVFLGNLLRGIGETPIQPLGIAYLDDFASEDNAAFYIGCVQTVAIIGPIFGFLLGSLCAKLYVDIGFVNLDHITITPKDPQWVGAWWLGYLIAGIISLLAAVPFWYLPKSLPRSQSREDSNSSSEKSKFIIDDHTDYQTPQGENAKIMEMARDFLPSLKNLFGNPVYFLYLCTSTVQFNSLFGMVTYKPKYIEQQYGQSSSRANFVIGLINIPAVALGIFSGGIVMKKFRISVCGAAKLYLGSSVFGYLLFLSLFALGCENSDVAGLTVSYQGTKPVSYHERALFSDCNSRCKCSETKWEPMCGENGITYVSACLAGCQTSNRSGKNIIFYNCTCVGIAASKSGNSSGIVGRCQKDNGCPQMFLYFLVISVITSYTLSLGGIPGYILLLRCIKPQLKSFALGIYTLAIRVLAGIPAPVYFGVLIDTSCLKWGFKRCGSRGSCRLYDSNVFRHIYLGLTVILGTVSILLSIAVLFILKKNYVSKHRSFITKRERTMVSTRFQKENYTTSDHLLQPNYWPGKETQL
Text: transfected with transporters of interest, including hOAT1, hOAT3, hOAT4, hOATP1A2, hOATP3A1, hOATP4A1, hOATP5A1, hOATP1C1, hOATP1B1, hOATP1B3, hOATP2B1, hOCT1, hOCT2, hOCTN1, hOCTN2, hASBT, hNTCP, hNPT1, hMATE1, hOSTα/β, hPEPT1, hPEPT2, rOatp1a1, rOatp1a4, rOatp1a5, rOatp1b2, rNtcp, rAsbt, rOat1, and rOct1. Cells were transfected with expression plasmid or vector control lacking any insert using Lipofectin reagent (Invitrogen). Sixteen hours thereafter, cells were washed with transport media (OPTIMEM, Invitrogen) and treated with radiolabeled drug. At various time intervals, cells were washed three times with ice-cold PBS and then lysed with 1% sodium dodecyl sulfate. The cellular radioactivity was quantified by liquid scintillation counting as described above. Similar analyses were performed in HEK293 cells transfected with hOATP1A2, hOATP1C1, mMATE1, and hMATE1, with cells seeded in poly lysine pre-coated 12-well plates. For hOATP1A2 and hOATP1C1, transient transfections were performed with either an empty vector, OATP1A2, or OATP1C1 using Lipofectamine 2000 according to the manufacturers protocol (Invitrogen). At 48 h post transfection, […]
as §3

[6] = molecular target: hOAT1 (Homo sapiens, UniProt Q4U2R8); experiment: Vincristine uptake screen, HeLa cells overexpressing hOAT1; format: in vitro ADME
Sequence of hOAT1 (Q4U2R8 whole entry): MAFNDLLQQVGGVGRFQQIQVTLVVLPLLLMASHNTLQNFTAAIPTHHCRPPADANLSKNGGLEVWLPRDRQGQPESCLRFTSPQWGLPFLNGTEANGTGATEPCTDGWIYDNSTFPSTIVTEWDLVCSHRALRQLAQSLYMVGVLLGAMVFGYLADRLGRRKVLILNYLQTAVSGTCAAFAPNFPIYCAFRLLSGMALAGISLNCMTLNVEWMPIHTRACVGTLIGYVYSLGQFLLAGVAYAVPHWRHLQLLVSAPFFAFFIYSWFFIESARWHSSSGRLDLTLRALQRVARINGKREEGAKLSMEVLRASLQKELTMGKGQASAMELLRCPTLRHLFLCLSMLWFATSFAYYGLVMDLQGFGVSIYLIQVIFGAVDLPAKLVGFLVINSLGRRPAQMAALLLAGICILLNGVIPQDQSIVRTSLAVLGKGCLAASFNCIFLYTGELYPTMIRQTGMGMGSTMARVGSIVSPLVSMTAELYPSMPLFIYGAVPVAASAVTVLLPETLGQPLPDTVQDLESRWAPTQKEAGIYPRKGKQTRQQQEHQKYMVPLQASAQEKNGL
Protocol: as §1
as §2, with “(Invitrogen).” for “(Invitrogen). Sixteen hours thereafter, cells were washed with transport media (OPTIMEM, Invitrogen) and treated with radiolabeled drug.”
as §3

SMILES	Influence on uptake of vincristine [1]	EβG uptake (% of vehicle) [2]	Vincristine uptake (% of vector control) [3]	Vincristine uptake (% of vector control) [4]	Contribution of transporter to cellular uptake of vincristine [5]	Vincristine uptake (% of vector control) [6]
Cc1cn(-c2cc(NC(=O)c3ccc(C)c(Nc4nccc(-c5cccnc5)n4)c3)cc(C(F)(F)F)c2)cn1 [Nilotinib, nilotinib]	did not influence the uptake of vincristine	9.108 % of vehicle and 9.828 % of vehicle and 15.7637 % of vehicle	–	–	–	–
CC[C@]1(O)C[C@H]2CN(CCc3c([nH]c4ccccc34)[C@@](C(=O)OC)(c3cc4c(cc3OC)N(C=O)[C@H]3[C@@](O)(C(=O)OC)[C@H](OC(C)=O)[C@]5(CC)C=CCN6CC[C@]43[C@@H]65)C2)C1 [Vincristine, vincristine]	–	–	104.00 % of vector control and 96.00 % of vector control and 76.00 % of vector control and 101.00 % of vector control and 79.00 % of vector control and 120.00 % of vector control and 100.00 % of vector control and 111.00 % of vector control	113.00 % of vector control and 80.00 % of vector control and 88.00 % of vector control and 105.00 % of vector control and 83.00 % of vector control and 131.00 % of vector control and 125.00 % of vector control and 135.00 % of vector control	do not appreciably contribute to the cellular uptake of vincristine	127.00 % of vector control and 112.00 % of vector control and 76.00 % of vector control and 98.00 % of vector control and 129.00 % of vector control and 120.00 % of vector control and 111.00 % of vector control and 117.00 % of vector control
